Data reported in patent US20210171564A1, “COMPOSITIONS AND METHODS FOR THE TREATMENT OF CANCER” (Cellix Bio Private Limited, priority 2018, published 2021).
Where “and” joins values, the source holds several entries; their conditions need not be identical. Identical values can stand only once. Entries after “also recorded” stand apart in the source; their conditions may differ.

Legend:
[1] = system: HCT116 human colon cancer xenograft; experiment: Anti-tumor efficacy in HCT-116 xenograft model in Foxn1 nude mice (tumor growth inhibition); assay type: in vivo, Foxn1 athymic nude female mice; conditions: for % Tumor Growth Inhibition (% TGI): oral; for tumor growth inhibition: day not given
Excerpt: Evaluation of Anti-Tumor Efficacy of Test Compound (CLX-Syn-G155A-C03) in HCT-116 Xenograft Model in Fox N1 Nude Mice:
(§1) The purpose of this study was to evaluate the anti-tumor activity of test compound administered by oral gavage, for a period of 17 days in HCT116 human colon cancer xenograft bearing Foxn1 athymic nude mice. The anti-tumor activity of test compound was compared with capecitabine. Foxn1 athymic nude female mice (7-8 weeks) were implanted with human colon cancer cell line, HCT116 (5 million cells/site) subcutaneously in the dorsal right flank. The animals were randomized (N=10) into different treatment groups as vehicle control, test compound (300 mg/kg, QD, 150 mg/kg BID, 1000 mg/kg QD and 500 mg/kg BID or capecitabine (1000 mg/kg QD and 500 mg/kg BID) based on the tumor volume, when the subcutaneous tumor reached a volume in the range of 70-137 mm^3.
(§2) The animals in the control group were dosed with the formulation used for test compound, which consisted of 0.5% w/v HPMC+0.5% w/v Tween-80 in purified water (q.s) at the dose volume of […]. The Capecitabine formulation was prepared using 0.5% Hydroxypropyl methylcellulose (HPMC E 15) in 40 mM citrate buffer, pH 6.0 at the dose volume of 10 mL/kg. Treatment to animals was performed initially for ten days dosing followed by 2 off doses days and then continued for another 7 days. […] Tumor growth inhibition (TGI) was calculated based on the tumor volume on a given day as compared to that on day 1. On day 19, blood samples were collected from test compound 1000 mg/kg QD and Capecitabine 1000 mg/kg QD groups at 0 hr; prior to dosing (first dose administration in morning) and at 0.5, 1, 2, 4, 8 and 24 hours post dosing to evaluate the pharmacokinetic parameters of various metabolites (5′-DFCR, 5′-DFUR, 5-Fluorouracil and valproic acid).

[2] = Toxicity profile in the xenograft study (mortality, clinical signs, body weight); assay type: in vivo; conditions: for Diarrhea / Hunch back / Morality: animals affected/10
Excerpt: as §1, §2

SMILES | % Tumor Growth Inhibition (% TGI) ([1]; 500 mg/kg BID, day 4) [%] | % Tumor Growth Inhibition (% TGI) ([1]; 500 mg/kg BID, day 6) [%] | % Tumor Growth Inhibition (% TGI) ([1]; 500 mg/kg BID, day 8) [%] | % Tumor Growth Inhibition (% TGI) ([1]; 500 mg/kg BID, day 11) [%] | % Tumor Growth Inhibition (% TGI) ([1]; 500 mg/kg BID, day 13) [%] | % Tumor Growth Inhibition (% TGI) ([1]; 500 mg/kg BID, day 15) [%] | tumor growth inhibition ([1]; 1000 mg/kg QD (once daily)) [%] | % Tumor Growth Inhibition (% TGI) ([1]; 1000 mg/kg QD, day 4) [%] | % Tumor Growth Inhibition (% TGI) ([1]; 1000 mg/kg QD, day 6) [%] | % Tumor Growth Inhibition (% TGI) ([1]; 1000 mg/kg QD, day 8) [%] | % Tumor Growth Inhibition (% TGI) ([1]; 1000 mg/kg QD, day 11) [%] | % Tumor Growth Inhibition (% TGI) ([1]; 1000 mg/kg QD, day 13) [%] | % Tumor Growth Inhibition (% TGI) ([1]; 1000 mg/kg QD, day 15) [%] | further results
CCCCCOC(=O)Nc1nc(=O)n([C@@H]2O[C@H](C)[C@@H](O)[C@H]2O)cc1F [Capecitabine, reference compound] | 87.0 | 82.9 | 85.8 | 89.3 | 93.6 | 94.1 | 94.1 | 76.8 | 71.5 | 71.7 | 77.2 | 86.9 | 87.6 | tumor growth inhibition ([1]; 500 mg/kg BID): 87.6%; Mean % body weight reduction ([2]; 500 mg/kg BID): −16.8%; Diarrhea ([2]; 500 mg/kg BID): 1/10; Hunch back ([2]; 500 mg/kg BID): 3/10; Morality ([2]; 500 mg/kg BID): 2/10; Mean % body weight reduction ([2]; 1000 mg/kg QD): −24.5%; Diarrhea ([2]; 1000 mg/kg QD): 0/10; Hunch back ([2]; 1000 mg/kg QD): 3/10; Morality ([2]; 1000 mg/kg QD): no mortality and 0/10
CCCC(CCC)C(=O)Nc1nc(=O)n([C@@H]2O[C@H](C)[C@@H](OC(C)=O)[C@H]2OC(C)=O)cc1F [Test Compound, (2R,3R,4R,5R)-2-(5-fluoro-2-oxo-4-(2-propylpentanamido)pyrimidin-1(2H)-yl)-5-methyltetrahydrofuran-3,4-diyl diacetate] | 76.3 | 74.8 | 81.3 | 87.7 | 95.4 | 96.6 | > 90 | 66.0 | 70.5 | 73.3 | 78.4 | 88.1 | 90.9 | % Tumor Growth Inhibition (% TGI) ([1]; 150 mg/kg BID, day 4): 37.4%; % Tumor Growth Inhibition (% TGI) ([1]; 150 mg/kg BID, day 6): 40.2%; % Tumor Growth Inhibition (% TGI) ([1]; 150 mg/kg BID, day 8): 39.2%; % Tumor Growth Inhibition (% TGI) ([1]; 150 mg/kg BID, day 11): 47.6%; % Tumor Growth Inhibition (% TGI) ([1]; 150 mg/kg BID, day 13): 55.7%; % Tumor Growth Inhibition (% TGI) ([1]; 150 mg/kg BID, day 15): 54.7%; % Tumor Growth Inhibition (% TGI) ([1]; 300 mg/kg QD, day 4): 58.8%; % Tumor Growth Inhibition (% TGI) ([1]; 300 mg/kg QD, day 6): 51.0%; % Tumor Growth Inhibition (% TGI) ([1]; 300 mg/kg QD, day 8): 55.5%; % Tumor Growth Inhibition (% TGI) ([1]; 300 mg/kg QD, day 11): 60.7%; % Tumor Growth Inhibition (% TGI) ([1]; 300 mg/kg QD, day 13): 67.2%; % Tumor Growth Inhibition (% TGI) ([1]; 300 mg/kg QD, day 15): 70.4%; antitumor activity of once a day schedule versus twice a day schedule (150 mg/kg BID) ([1]; 300 mg/kg/day once daily): better antitumor activity; antitumor activity against HCT-116 human colon cancer xenografts ([1]; oral gavage, QD and BID dosage regimen): statistically significant, dose dependent tumor growth inhibition; also recorded: statistically significant dose dependent antitumor activity
